Like-named read-outs stand apart in the source and are kept apart here.
Legend:
[1] = tested on: acetylated microtubule in HEK293T cells; assay: Microtubule-Stabilizing Activity Assay (acetylated microtubule immunoblot, HEK293T, colchicine challenge); type: cell-based; conditions: 1 h pre-incubation, then colchicine 1 μM 3 h, relative to CNDR-51657 at 500 nM = 1.00; for Microtubule-Stabilizing Activity 50 nM: compound 50 nM; for Microtubule-Stabilizing Activity 500 nM: compound 500 nM
Experimental: Compound solvent: 100% dimethyl sulfoxide (DMSO). Cell line: HEK293T (ATCC, CRL3216). Culture conditions: Cells were cultured in Dulbecco's Modified Eagle's Medium (DMEM) containing 10% fetal bovine serum and 1% penicillin/streptomycin. Cells were cultured at 37° C. in a Thermo-Fisher incubator with a humidified atmosphere of 5% carbon dioxide.
One day prior to the experiment, 100,000 cells were seeded at a density of 200,000 cells/ml in a 24-well plate.
On the day of the experiment, 20 μl of PBS phosphate buffer containing the test compound at experimental concentrations or an equivalent volume of DMSO was added to each well. After incubating at 37° C. for 1 hour, colchicine was added to each well at a final concentration of 1 μM, followed by an additional 3-hour incubation at 37° C. The plate was then placed on ice. The medium in each well was removed, and the cells were washed with ice-cold PBS. After aspirating the PBS, 0.1 mL of ice-cold RIPA lysis buffer (containing 0.5% sodium deoxycholate, 0.1% SDS, 1% NP-40, 5 mM EDTA, pH 8.0) was quickly added. Prior to use, a commercial protease inhibitor cocktail (1:500) and 1 μM deacetylase inhibitor Trichostatin A (Sangon Biotech Co., Ltd.) were added to the cell lysis buffer. The cell lysate were transferred to a 1.5 ml centrifuge tube, sonicated, and centrifuged at 13,000 rpm for 10 minutes. The supernatant was collected, and protein concentration was determined using the BCA assay.
Based on existing literature (Black, 1989; Kurt, 2011), acetylated microtubule was used as an indicator of microtubule polymerization to assess the microtubule-stabilizing efficacy of the compounds. HEK293T cell lysates were analyzed by SDS-PAGE (7.5% gel) and immunoblotted using acetylated microtubule antibody (1:20,000, Sigma-Aldrich, T7451) and α-microtubule antibody (1:2,000, Proteintech, 11224-1-AP). After incubation with fluorescent dye-conjugated IgG (1:40,000, Licor), the blots were visualized using an Odyssey-Dlx imaging system. Grayscale analysis was performed using ImageJ.
The compound activity was quantified with the microtubule-stabilizing activity of CNDR-51657 (C5) (Jane, 2016) at 500 nM as 1.00.

[2] = Mouse Oral Pharmacokinetic Study; type: in vivo; conditions: male CD1 mice, oral gavage 10 mg/kg
Experimental: Healthy male CD1 mice were used as experimental animals. The drug was administered by oral gavage at a dose of 10 mg/kg with a dosing volume of 10 mL/kg. Drug preparation: 10 mg of the compound was placed in 10 mL of 50% PEG400 or 20% HPb-cyclodextrin, ground and shaken to ensure uniform distribution of the compound in small particle size, followed by oral administration. Blood samples were collected at 30 min, 1 h, 2 h, and 4 h post-dose, and brain tissues were sampled at 4 h. EDTA dipotassium salt was added to the blood samples, and plasma was obtained after centrifugation. The supernatant was analyzed after dilution with 5 volumes of acetonitrile and centrifugation. The brain tissue homogenate was diluted with 3.5 volumes of acetonitrile, centrifuged, and the supernatant was collected for analysis. The samples were then analyzed by liquid chromatography-tandem mass spectrometry (LC-MS/MS): the instrument was AB Sciex 3500; the mobile phase consisted of 0.1% formic acid in water (A)/0.1% formic acid in acetonitrile (B), with gradient elution.

Row | Structure (SMILES) | Microtubule-Stabilizing Activity 50 nM [1] | Microtubule-Stabilizing Activity 500 nM [1] | also measured
1 | CNCCCOc1cc(F)c(-c2c(Cl)nc3ncnn3c2N[C@@H](C)C(F)(F)F)c(F)c1 [Cevipubulin, reference compound] | 1.65 | 1.68 | Cbrain/Cplasma ([2]; 4 h): 0.10; Cbrain@4h ([2]; brain tissue at 4 h): 38 ng/mL; Cmax ([2]; plasma): 660 ng/mL; Tmax ([2]; plasma): 54 min; Cpasma@4h ([2]; plasma at 4 h): 376 ng/mL; AUC0-4h ([2]; plasma, 0-4 h): 1826 ng·h/mL
2 | CNC1CC2(C1)CC(Oc1cc(F)c(-c3c(Cl)nc4ncnn4c3N[C@@H](C)C(F)(F)F)c(F)c1)C2 (stereo partly drawn) [Example 11, (S)-5-Chloro-6-(2,6-difluoro-4-((6-(methylamino)spiro[3.3]heptan-2-yl)oxy)phenyl)-N-(1,1,1-trifluoropropan-2-yl)-[1,2,4]triazolo[1,5-a]pyrimidin-7-amine] | 0.60 | 1.45 | Kp at 4 h ([2]; mouse, brain/plasma, 4 h, read-out: Cbrain/Cplasma): 0.11; concentration at 4 h ([2]; mouse, brain tissue at 4 h, read-out: Cbrain@4h): 252 ng/mL; concentration at 4 h ([2]; mouse, plasma at 4 h, read-out: Cpasma@4h): 2200 ng/mL; AUC(0-t) ([2]; mouse, plasma, 0-4 h, read-out: AUC0-4h): 11200 ng·h/mL; Cmax ([2]; mouse, plasma, read-out: Cmax): 4140 ng/mL; Tmax ([2]; mouse, plasma, read-out: Tmax): 45 min
3 | C[C@H](Nc1c(-c2c(F)cc(O[C@@H]3C[C@H]4CNC[C@H]4C3)cc2F)c(Cl)nc2ncnn12)C(F)(F)F [Example 42, 5-Chloro-6-(2,6-difluoro-4-(((3aR,5s,6aS)-octahydrocyclopenta[c]pyrrol-5-yl)oxy)phenyl)-N—((S)-1,1,1-trifluoropropan-2-yl)-[1,2,4]triazolo[1,5-a]pyrimidin-7-amine] | 0.25 | 0.73 | –
4 | C[C@H](Nc1c(-c2c(F)cc(O[C@H]3C[C@@H]4CN(C)C[C@@H]4C3)cc2F)c(Cl)nc2ncnn12)C(F)(F)F [Example 43, 5-Chloro-6-(2,6-difluoro-4-(((3aR,5s,6aS)-2-methyloctahydrocyclopenta[c]pyrrol-5-yl)oxy)phenyl)-N—((S)-1,1,1-trifluoropropan-2-yl)-[1,2,4]triazolo[1,5-a]pyrimidin-7-amine] | 0.09 | 2.69 | –
5 | CC(C)[C@@H](C)Nc1c(-c2c(F)cc(C#C[C@@H]3[C@H]4CNC[C@@H]34)cc2F)c(Cl)nc2ncnn12.Cl [Example 44, 6-(4-(((1R,5S,6s)-3-Azabicyclo[3.1.0]hexan-6-yl)ethynyl)-2,6-difluorophenyl)-5-chloro-N—((R)-3-methylbutan-2-yl)-[1,2,4]triazolo[1,5-a]pyrimidin-7-amine hydrochloride] | – | 1.6 | –
6 | C[C@@H](Nc1c(-c2c(F)cc(C#C[C@@H]3[C@H]4CNC[C@@H]34)cc2F)c(Cl)nc2ncnn12)C1CCC1.Cl [Example 45, 6-(4-(((1R,5S,6s)-3-Azabicyclo[3.1.0]hex-6-yl)ethynyl)-2,6-difluorophenyl)-5-chloro-N—((R)-1-cyclobutylethyl)-[1,2,4]triazolo[1,5-a]pyrimidin-7-amine hydrochloride] | 1.1 | 1.3 | –
7 | C[C@H](Nc1c(-c2c(F)cc(C#C[C@@H]3[C@H]4CNC[C@@H]34)cc2F)c(Cl)nc2ncnn12)C(F)(F)F.Cl [Example 47] | 1.23 | 1.38 | –
8 | Cl.Fc1cc(C#C[C@@H]2[C@H]3CNC[C@@H]23)cc(F)c1-c1c(Cl)nc2ncnn2c1NCC(F)(F)F [Example 49, 6-(4-(((1R,5S,6s)-3-Azabicyclo[3.1.0]hexan-6-yl)ethynyl)-2,6-difluorophenyl)-5-chloro-N-(2,2,2-trifluoroethyl)-[1,2,4]triazolo[1,5-a]pyrimidin-7-amine hydrochloride] | 1.04 | 1.74 | –
9 | CN1C[C@@H]2C(C#Cc3cc(F)c(-c4c(Cl)nc5ncnn5c4NCC(F)(F)F)c(F)c3)[C@@H]2C1 (stereo partly drawn) [Example 50, 5-Chloro-6-(2,6-difluoro-4-(((1R,5S,6s)-3-methyl-3-azabicyclo[3.1.0]hexan-6-yl)ethynyl)phenyl)-N-(2,2,2-trifluoroethyl)-[1,2,4]triazolo[1,5-a]pyrimidin-7-amine] | 2.0 | 2.78 | –
10 | CC(C)[C@@H](C)Nc1c(-c2c(F)cc(/C=C/[C@@H]3[C@H]4CNC[C@@H]34)cc2F)c(Cl)nc2ncnn12.Cl [Example 51, 6-(4-((E)-2-((1R,5S,6s)-3-Azabicyclo[3.1.0]hexan-6-yl)vinyl)-2,6-difluorophenyl)-5-chloro-N—((R)-3-methylbutan-2-yl)-[1,2,4]triazolo[1,5-a]pyrimidin-7-amine hydrochloride] | – | 1.85 | –
11 | C[C@@H](Nc1c(-c2c(F)cc(/C=C/[C@@H]3[C@H]4CNC[C@@H]34)cc2F)c(Cl)nc2ncnn12)C1CCC1.Cl [Example 52, 6-(4-((E)-2-((1R,5S,6s)-3-Azabicyclo[3.1.0]hexan-6-yl)vinyl)-2,6-difluorophenyl)-5-chloro-N—((R)-1-cyclobutylethyl)-[1,2,4]triazolo[1,5-a]pyrimidin-7-amine hydrochloride] | 1.41 | 1.69 | –
12 | C[C@H](Nc1c(-c2c(F)cc(/C=C/[C@@H]3[C@H]4CNC[C@@H]34)cc2F)c(Cl)nc2ncnn12)C(F)(F)F.Cl [Example 53, 6-(4-((E)-2-((1R,5S,6s)-3-Azabicyclo[3.1.0]hexan-6-yl)vinyl)-2,6-difluorophenyl)-5-chloro-N—((S)-1,1,1-trifluoropropan-2-yl)-[1,2,4]triazolo[1,5-a]pyrimidin-7-amine hydrochloride] | 1.23 | 1.38 | –
13 | Cl.Fc1cc(/C=C/[C@@H]2[C@H]3CNC[C@@H]23)cc(F)c1-c1c(Cl)nc2ncnn2c1NCC(F)(F)F [Example 54, 6-(4-((E)-2-((1R,5S,6s)-3-Azabicyclo[3.1.0]hexan-6-yl)vinyl)-2,6-difluorophenyl)-5-chloro-N-(2,2,2-trifluoroethyl)-[1,2,4]triazolo[1,5-a]pyrimidin-7-amine hydrochloride] | 1.56 | 3.12 | –
14 | C[C@@H](Nc1c(-c2c(F)cc(/C=C/[C@@H]3[C@H]4CN(C)C[C@@H]34)cc2F)c(Cl)nc2ncnn12)C1CCC1 [Example 56, 5-Chloro-N—((R)-1-cyclobutylethyl)-6-(2,6-difluoro-4-((E)-2-((1R,5S,6s)-3-methyl-3-azabicyclo[3.1.0]hexan-6-yl)vinyl)phenyl)-[1,2,4]triazolo[1,5-a]pyrimidin-7-amine] | 1.47 | 1.69 | –
15 | CC(C)[C@@H](C)Nc1c(-c2c(F)cc(/C=C/[C@@H]3[C@H]4CN(C)C[C@@H]34)cc2F)c(Cl)nc2ncnn12 [Example 59] | 0.61 | 1.87 | –
